{"source": "patent US20060003004A1", "about": "(Collegium Pharmaceutical, Inc., priority 2002, published 2006)", "origin": "cited, not measured here", "key": {"[1]": {"conditions": "n=1,033"}, "[2]": {"conditions": "Phase 2 and Phase 3 depression studies"}, "[3]": {"conditions": "40-120 mg/day, 1032 patients"}, "[4]": {"experiment": "not given", "remark": "listed apart in the source"}, "[5]": {"conditions": "intravenous, 10 patients"}, "[6]": {"molecular_target": "uptake of dopamine (Homo sapiens, UniProt Q01959)", "sequence (Q01959 whole entry)": "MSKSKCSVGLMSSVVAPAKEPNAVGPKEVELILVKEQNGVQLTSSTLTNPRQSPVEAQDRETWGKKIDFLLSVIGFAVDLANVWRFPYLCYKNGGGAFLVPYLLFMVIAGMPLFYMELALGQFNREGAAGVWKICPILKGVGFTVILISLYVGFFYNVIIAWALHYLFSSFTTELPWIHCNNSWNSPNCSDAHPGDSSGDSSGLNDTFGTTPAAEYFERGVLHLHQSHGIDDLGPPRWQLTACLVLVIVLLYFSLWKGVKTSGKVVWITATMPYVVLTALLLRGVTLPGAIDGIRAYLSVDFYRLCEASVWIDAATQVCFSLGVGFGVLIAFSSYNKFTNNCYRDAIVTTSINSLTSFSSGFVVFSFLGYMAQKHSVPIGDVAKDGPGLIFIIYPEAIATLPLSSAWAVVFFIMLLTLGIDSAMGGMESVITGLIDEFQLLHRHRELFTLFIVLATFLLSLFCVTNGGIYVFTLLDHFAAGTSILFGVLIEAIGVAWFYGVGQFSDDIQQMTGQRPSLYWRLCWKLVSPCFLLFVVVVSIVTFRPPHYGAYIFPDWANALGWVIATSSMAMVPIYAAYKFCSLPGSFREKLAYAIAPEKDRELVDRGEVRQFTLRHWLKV"}, "[7]": {"test_system": "alpha adrenergic receptors"}, "[8]": {"test_system": "beta adrenergic receptors"}, "[9]": {"test_system": "muscarinic receptors"}, "[10]": {"test_system": "histaminergic receptors"}, "[11]": {"test_system": "dopaminergic receptors"}, "[12]": {"test_system": "beta adrenoceptors in rat cortex", "conditions": "after chronic administration"}, "[13]": {"experiment": "not given", "remark": "listed apart in the source"}, "[14]": {"conditions": "for Participants who failed the dose escalation: escalation to 200 mg daily"}, "[15]": {"conditions": "100 mg/day twice daily, N = 1871"}, "[16]": {"conditions": "200 mg/day twice daily, N = 865"}}, "note": "Read-outs that look alike come from different tables or passages of the source. Marks after values point to notes of the source that are not given here.", "data": [{"molecule": "COc1ccc(C(CN(C)C)C2(O)CCCCC2)cc1", "note": "(stereo not shown) [venlafaxine]", "values": [{"measurement": "Adverse experience incidence: anorexia", "setting": "[1]", "value": 11, "unit": "%"}, {"measurement": "Adverse experience incidence: anxiety", "setting": "[1]", "value": 6, "unit": "%"}, {"measurement": "Adverse experience incidence: constipation", "setting": "[1]", "value": 15, "unit": "%"}, {"measurement": "Adverse experience incidence: dizziness", "setting": "[1]", "value": 19, "unit": "%"}, {"measurement": "Adverse experience incidence: dry mouth", "setting": "[1]", "value": 22, "unit": "%"}, {"measurement": "Adverse experience incidence: insomnia", "setting": "[1]", "value": 18, "unit": "%"}, {"measurement": "Adverse experience incidence: nausea", "setting": "[1]", "value": 37, "unit": "%"}, {"measurement": "Adverse experience incidence: nervousness", "setting": "[1]", "value": 13, "unit": "%"}, {"measurement": "Adverse experience incidence: somnolence", "setting": "[1]", "value": 23, "unit": "%"}, {"measurement": "Adverse experience incidence: tremor", "setting": "[1]", "value": 5, "unit": "%"}, {"measurement": "Adverse experience incidence: vomiting", "setting": "[1]", "value": 6, "unit": "%"}, {"measurement": "Patients who discontinued treatment that did so due to nausea", "setting": "[2]", "value": "~32", "unit": "%"}]}, {"molecule": "CNCC[C@H](Oc1cccc2ccccc12)c1cccs1", "note": "[duloxetine]", "values": [{"measurement": "Rate of adverse events nausea, dry mouth, fatigue, dizziness, constipation, somnolence, decreased appetite, and sweating", "setting": "[3]", "value": "more than 5%"}]}, {"molecule": "CCN(CC)C(=O)C1(c2ccccc2)CC1CN", "note": "(stereo not shown) [milnacipran, Milnacipran]", "values": [{"measurement": "Frequency of Adverse Experiences: Abdominal Pain", "setting": "50 mg/day twice daily, N = 426", "value": 6.1, "unit": "%"}, {"measurement": "Frequency of Adverse Experiences: Agitation", "setting": "50 mg/day twice daily, N = 426", "value": 1.6, "unit": "%"}, {"measurement": "Frequency of Adverse Experiences: Anxiety", "setting": "50 mg/day twice daily, N = 426", "value": 2.8, "unit": "%"}, {"measurement": "Frequency of Adverse Experiences: Dry mouth", "setting": "50 mg/day twice daily, N = 426", "value": 9.4, "unit": "%"}, {"measurement": "Frequency of Adverse Experiences: Dyspepsia", "setting": "50 mg/day twice daily, N = 426", "value": 3.5, "unit": "%"}, {"measurement": "Frequency of Adverse Experiences: Dysuria", "setting": "50 mg/day twice daily, N = 426", "value": 1.4, "unit": "%"}, {"measurement": "Frequency of Adverse Experiences: Fatigue", "setting": "50 mg/day twice daily, N = 426", "value": 2.8, "unit": "%"}, {"measurement": "Frequency of Adverse Experiences: Headache", "setting": "50 mg/day twice daily, N = 426", "value": 14.6, "unit": "%"}, {"measurement": "Frequency of Adverse Experiences: Hot flushes", "setting": "50 mg/day twice daily, N = 426", "value": 1.6, "unit": "%"}, {"measurement": "Frequency of Adverse Experiences: Increased Sweating", "setting": "50 mg/day twice daily, N = 426", "value": 14.0, "unit": "%"}, {"measurement": "Frequency of Adverse Experiences: Insomnia", "setting": "50 mg/day twice daily, N = 426", "value": 9.2, "unit": "%"}, {"measurement": "Frequency of Adverse Experiences: Nausea", "setting": "50 mg/day twice daily, N = 426", "value": 12.7, "unit": "%"}, {"measurement": "Frequency of Adverse Experiences: Nervousness", "setting": "50 mg/day twice daily, N = 426", "value": 4.2, "unit": "%"}, {"measurement": "Frequency of Adverse Experiences: Palpitations", "setting": "50 mg/day twice daily, N = 426", "value": 2.3, "unit": "%"}, {"measurement": "Frequency of Adverse Experiences: Somnolence", "setting": "50 mg/day twice daily, N = 426", "value": 5.4, "unit": "%"}, {"measurement": "Frequency of Adverse Experiences: Tremor", "setting": "50 mg/day twice daily, N = 426", "value": 0.9, "unit": "%"}, {"measurement": "Frequency of Adverse Experiences: Vertigo", "setting": "50 mg/day twice daily, N = 426", "value": 1.6, "unit": "%"}, {"measurement": "Frequency of Adverse Experiences: Vomiting", "setting": "50 mg/day twice daily, N = 426", "value": 3.8, "unit": "%"}, {"measurement": "Frequency of Adverse Experiences: Agitation", "setting": "[15]", "value": 3.3, "unit": "%"}, {"measurement": "Frequency of Adverse Experiences: Anxiety", "setting": "[15]", "value": 4.1, "unit": "%"}, {"measurement": "Frequency of Adverse Experiences: Dry mouth", "setting": "[15]", "value": 7.9, "unit": "%"}, {"measurement": "Frequency of Adverse Experiences: Dyspepsia", "setting": "[15]", "value": 2.1, "unit": "%"}, {"measurement": "Frequency of Adverse Experiences: Dysuria", "setting": "[15]", "value": "2.1* %"}, {"measurement": "Frequency of Adverse Experiences: Fatigue", "setting": "[15]", "value": 2.5, "unit": "%"}, {"measurement": "Frequency of Adverse Experiences: Headache", "setting": "[15]", "value": 8.4, "unit": "%"}, {"measurement": "Frequency of Adverse Experiences: Hot flushes", "setting": "[15]", "value": 3.0, "unit": "%"}, {"measurement": "Frequency of Adverse Experiences: Increased Sweating", "setting": "[15]", "value": "4.3* %"}, {"measurement": "Frequency of Adverse Experiences: Insomnia", "setting": "[15]", "value": 6.1, "unit": "%"}, {"measurement": "Frequency of Adverse Experiences: Nausea", "setting": "[15]", "value": 11.2, "unit": "%"}, {"measurement": "Frequency of Adverse Experiences: Nervousness", "setting": "[15]", "value": 2.0, "unit": "%"}, {"measurement": "Frequency of Adverse Experiences: Palpitations", "setting": "[15]", "value": 2.7, "unit": "%"}, {"measurement": "Frequency of Adverse Experiences: Somnolence", "setting": "[15]", "value": 2.3, "unit": "%"}, {"measurement": "Frequency of Adverse Experiences: Tremor", "setting": "[15]", "value": 2.5, "unit": "%"}, {"measurement": "Frequency of Adverse Experiences: Vertigo", "setting": "[15]", "value": 5.0, "unit": "%"}, {"measurement": "Frequency of Adverse Experiences: Vomiting", "setting": "[15]", "value": 3.9, "unit": "%"}, {"measurement": "Frequency of Adverse Experiences: Abdominal Pain", "setting": "[16]", "value": 7.6, "unit": "%"}, {"measurement": "Frequency of Adverse Experiences: Agitation", "setting": "[16]", "value": 2.9, "unit": "%"}, {"measurement": "Frequency of Adverse Experiences: Anxiety", "setting": "[16]", "value": 5.1, "unit": "%"}, {"measurement": "Frequency of Adverse Experiences: Dry mouth", "setting": "[16]", "value": 9.0, "unit": "%"}, {"measurement": "Frequency of Adverse Experiences: Dyspepsia", "setting": "[16]", "value": 2.2, "unit": "%"}, {"measurement": "Frequency of Adverse Experiences: Dysuria", "setting": "[16]", "value": "3.7* %"}, {"measurement": "Frequency of Adverse Experiences: Fatigue", "setting": "[16]", "value": 4.4, "unit": "%"}, {"measurement": "Frequency of Adverse Experiences: Headache", "setting": "[16]", "value": 13.5, "unit": "%"}, {"measurement": "Frequency of Adverse Experiences: Hot flushes", "setting": "[16]", "value": 3.6, "unit": "%"}, {"measurement": "Frequency of Adverse Experiences: Increased Sweating", "setting": "[16]", "value": "11.6* %"}, {"measurement": "Frequency of Adverse Experiences: Insomnia", "setting": "[16]", "value": 11.3, "unit": "%"}, {"measurement": "Frequency of Adverse Experiences: Nausea", "setting": "[16]", "value": "19.4* %"}, {"measurement": "Frequency of Adverse Experiences: Nervousness", "setting": "[16]", "value": 2.8, "unit": "%"}, {"measurement": "Frequency of Adverse Experiences: Palpitations", "setting": "[16]", "value": 4.6, "unit": "%"}, {"measurement": "Frequency of Adverse Experiences: Somnolence", "setting": "[16]", "value": 3.5, "unit": "%"}, {"measurement": "Frequency of Adverse Experiences: Tremor", "setting": "[16]", "value": "6.7* %"}, {"measurement": "Frequency of Adverse Experiences: Vertigo", "setting": "[16]", "value": 4.5, "unit": "%"}, {"measurement": "Frequency of Adverse Experiences: Vomiting", "setting": "[16]", "value": "7.9* %"}, {"measurement": "Adverse events: headache", "setting": "[4]; 100 mg/day twice daily", "value": 9, "unit": "%"}, {"measurement": "Adverse events: abdominal pain", "setting": "[4]; 200 mg/day twice daily", "value": 7, "unit": "%"}, {"measurement": "Adverse events: headache", "setting": "[4]; 200 mg/day twice daily", "value": 8, "unit": "%"}, {"measurement": "Adverse events: nausea and vomiting", "setting": "[4]; 200 mg/day twice daily", "value": 7, "unit": "%"}, {"measurement": "Patients reporting transient nausea", "setting": "[5]", "value": "five of them reported transient nausea"}, {"measurement": "Effect on uptake of dopamine", "setting": "[6]", "value": "does not affect"}, {"measurement": "Affinity for alpha adrenergic receptors", "setting": "[7]", "value": "no affinity"}, {"measurement": "Affinity for beta adrenergic receptors", "setting": "[8]", "value": "no affinity"}, {"measurement": "Affinity for muscarinic receptors", "setting": "[9]", "value": "no affinity"}, {"measurement": "Affinity for histaminergic receptors", "setting": "[10]", "value": "no affinity"}, {"measurement": "Affinity for dopaminergic receptors", "setting": "[11]", "value": "no affinity"}, {"measurement": "Effect on number of beta adrenoceptors in rat cortex", "setting": "[12]", "value": "does not affect"}, {"measurement": "Parent drug eliminated unchanged via the kidneys", "setting": "[13]; humans", "value": 90, "unit": "%"}, {"measurement": "half-life", "setting": "[13]; humans", "value": "approximately 8 hours"}, {"measurement": "Time within which oral doses are absorbed and distributed in the body", "setting": "[13]; oral doses", "value": "1 to 2", "unit": "h"}, {"measurement": "Metabolites as share of the concentration of the parent drug", "setting": "[13]; ten metabolites formed in the liver", "value": "about 10%"}, {"measurement": "Global pain score, mean value", "setting": "[14]; 1-7 scale (1 very much improved, 4 unchanged, 7 very much worse), FMS patients who reached endpoint, placebo 4.3, p=0.0001", "value": 2.3}, {"measurement": "Participants who failed the dose escalation", "setting": "[14]; BID-IR group", "value": 6, "unit": "%"}, {"measurement": "Participants who failed the dose escalation", "setting": "[14]; QD-IR group", "value": 19, "unit": "%"}]}]}
